# Laboratory results taken from PMC3608532, “Characterization of a Single-Chain Variable Fragment Recognizing a Linear Epitope of Aβ: A Biotechnical Tool for Studies on Alzheimer’s Disease?” (PLoS ONE, 2013).
# What was measured:
# [1] = tested on: Aβ naturally secreted by 7PA2 cells; experiment: Immunoprecipitation of cell culture derived Aβ; assay type: binding; conditions: scFv-IC16-NHS-Sepharose, Western blot with 4G8
# Method: Purified scFv-IC16 was dialyzed against PBS and coupled to NHS-Sepharose (GE, Buckinghamshire, UK) according to the manufacturers recommendations. Conditioned medium (CM) was prepared from confluent wild type CHO cells or 7PA2 cells cultured in DMEM (Life Technologies, UK) in presence or absence of FCS. Aβ was immune-precipitated from cleared CM with scFv-IC16-NHS-Sepharose overnight at 4°C. After washing with PBS, captured proteins were separated by 10–20% tricine peptide PAGE (Biorad, Hercules, CA) and transferred onto a 0.2 µm nitrocellulose membrane at 400 mA for 2 h. The filter was boiled for 5 min in PBS [42] and blocked overnight at 4°C with 5% fat-free milk in PBS containing 0.05% Tween 20 (PBS-T). After washing in PBS-T, the membrane was probed with 1∶200 diluted monoclonal 4G8 (Signet, Dedhem, MA). Bound antibody was detected with horseradish peroxidase conjugated goat anti-mouse Ig (at 1∶25000) (Thermo Scientific, Bonn, Germany). Subsequently, the Amersham ECL Western Blotting Detection Reagent (GE, Buckinghamshire, UK) was applied for visualization.
# [2] = tested on: Aβ(1-10); experiment: ELISA binding to Aβ(1-10) peptides; conditions: 60 ng/well, 100% C-terminally biotinylated Aβ1-10; p = 0.19 versus N-bio oligomers
# Method: An ELISA was applied to characterize the binding affinity of scFv-IC16 to different Aβ conformers. After concentration determination of the Aβ(1-42) monomer, oligomer and fibril preparations, each conformer was diluted in immobilization buffer (0.1 M NaHCO3, pH 9.3) to a concentration of 5 µg/ml, and coated on Nunc immobilizer streptavidin F96 clear plates (250 ng/well) (Nunc, Thermo Scientific, Waltham, MA, USA). Alternatively, Aβ monomers were prepared seedless in the same concentration by dissolving 50 µg N-terminally biotinylated Aβ(1-42) in 1 ml immobilization buffer and diluting it further to 5 µg/ml. N- or C-terminally biotinylated Aβ(1-10) peptides were dissolved in immobilization buffer to a final concentration of 1.2 µg/ml (60 ng/well). 50 µl of these Aβ solutions were incubated in the well for 1 h. Each well was washed with 100 µl immobilization buffer and the plate was stored at 4°C overnight in 100 µl immobilization buffer per well. Unspecific binding sites were blocked with 50 µl blocking buffer (PBS, 1% BSA) at room temperature for 1 h. […] The reaction was terminated by adding sulfuric acid to a final concentration of 1 M. The absorbance was recorded at 450 nm on Polarstar Optima plate reader (BMG, Ortenberg, Germany).
# [3] = tested on: Aβ(pE3-8); experiment: SPR binding kinetics to immobilized Aβ(pE3-8); conditions: SPR; two N-terminal residues truncated, E3 modified into pyroE3
# Method: (§1) Binding kinetics were determined by SPR using a Biacore™ X (GE Healthcare, UK). Synthetic Aβ peptides were dissolved in 10 mM NaAc, pH 4.0. The CM5 sensor chip surface (GE Healthcare, UK) was activated using N-ethyl-N′-3 […] carbodiimide (EDC) and N-hydroxysuccinimide (NHS) chemistry followed by 2-(2-pyridinyldithio)ethaneamine hydrochloride (PDEA), in order to introduce a reactive thiol group. Aβ was coupled via the C-terminal cysteine to the chip at a flow rate of 5 µl/min, and the remaining active groups were blocked by injecting cysteine. The immobilization procedure was performed according to manufacturer’s recommendation. All kinetic analyses were performed at a flow rate of 20 µl/min in PBS. Varying concentrations of scFv-IC16 (10 to 5000 nM) and IC16 (10 to 1000 nM) were injected. […] When required, the surface was regenerated by injecting 20 µl 50 mM glycine, pH 11.0. The data evaluation was performed using Biaevaluation Software 4.1.1. ScFv-IC16 data were fitted according to the Langmuir 1∶1 binding model, whereas IC16 data were fitted according to the bivalent binding model. Standard errors of equilibrium dissociation constants (KD) were calculated using standard errors of the corresponding association and dissociation rate constants.
# [4] = tested on: Aβ(8-15); experiment: SPR binding kinetics to immobilized Aβ(8-15)
# Method: as §1
# [5] = tested on: Aβ(1-42); experiment: Thioflavin T (ThT) assay of Aβ(1-42) fibrilization; assay type: biochemical, human; conditions: for fibrilization of Aβ(1-42), ThT fluorescence: PBS, room temperature, value after 10 h, n = 5
# Method: 7.5 µM Aβ(1-42) (stock solution of 190 µM in DMSO, freshly prepared before usage) were incubated with 10 µM ThT in PBS in absence or presence of different concentrations of scFv-IC16 (1.5, 3.75 and 7.5 µM) at room temperature for 24 h. In addition, scFv-IC16 (7.5 µM) without Aβ(1-42) was tested under the same conditions as the negative control. For all samples a reference value, generated with PBS and ThT only, was subtracted. […] The plate was covered by an adhesive film preventing evaporation of the sample buffer. Fluorescence recordings were performed every 30 min for 22 h (excitation wavelength 440 nm, emission wavelength 490 nm, Polarstar Optima, BMG, Ortenberg, Germany). The experiments were performed five-fold, and the average of the obtained values as well as the standard deviation was calculated.
substance,measurement,setting,value
"scFv-IC16: single-chain variable fragment (VH-(Gly4Ser)3-VL, His6- and Myc-tag) derived from Aβ binding monoclonal antibody IC16, expressed in E. coli",immunoprecipitation of monomeric Aβ,"[1]; 7PA2 conditioned medium containing FCS, overnight 4°C",efficiently precipitated
same,immunoprecipitation of lower oligomeric Aβ species,[1]; conditioned medium of 7PA2 cells cultured without FCS,efficiently precipitated
same,"ELISA binding to Aβ(1-10), C-terminal biotin tag",[2],very similar to Aβ oligomers
same,binding to Aβ(pE3-8),[3],no binding could be detected
same,interaction with Aβ(8-15),[4],No interaction
same,ThT fluorescence of scFv-IC16 only,"[5]; 7.5 µM scFv-IC16 without Aβ(1-42), negative control, after 10 h",did not show ThT fluorescence
same,"fibrilization of Aβ(1-42), ThT fluorescence","[5]; ratio 1:1: 7.5 µM Aβ(1-42) with 7.5 µM scFv-IC16, 10 µM ThT",completely inhibited
same,"fibrilization of Aβ(1-42), ThT fluorescence","[5]; ratio 2:1: 7.5 µM Aβ(1-42) with 3.75 µM scFv-IC16, 10 µM ThT",reduced the ThT fluorescence significantly
same,"fibrilization of Aβ(1-42), ThT fluorescence","[5]; ratio 5:1: 7.5 µM Aβ(1-42) with 1.5 µM scFv-IC16, 10 µM ThT",reduced the ThT fluorescence significantly
